Measured values from the NIST ThermoML archive (doi:10.1016/j.fluid.2013.07.054).
Numbers after ± are expanded uncertainties.

conditions: 298.15 K; 101 kPa; Liquid; Vibrating tube method

SMILES | mass density [kg/m3]
CC(=O)C(C)C [3-methyl-2-butanone] | 800.63 ± 0.11
CCC(C)=O [butanone] | 800.3 ± 0.11
CC(=O)CC(C)C [4-methylpentan-2-one] | 796.23 ± 0.11
